According to ChEMBL document CHEMBL4118243, “Synthesis, molecular modelling studies and biological evaluation of new oxoeicosanoid receptor 1 agonists” (Bioorg Med Chem, 2018):

Biological target: T1, Oxoeicosanoid receptor 1 (Homo sapiens, UniProt Q8TDS5)
Test: Agonist activity at human PK-tagged OXER1 expressed in CHOK1 cells assessed as EA-tagged beta-arrestin recruitment by beta-galactosidase enzyme fragment complementation assay relative to control
Format: functional, cell-based

T1 sequence (Q8TDS5 whole entry, the tested form may be a part): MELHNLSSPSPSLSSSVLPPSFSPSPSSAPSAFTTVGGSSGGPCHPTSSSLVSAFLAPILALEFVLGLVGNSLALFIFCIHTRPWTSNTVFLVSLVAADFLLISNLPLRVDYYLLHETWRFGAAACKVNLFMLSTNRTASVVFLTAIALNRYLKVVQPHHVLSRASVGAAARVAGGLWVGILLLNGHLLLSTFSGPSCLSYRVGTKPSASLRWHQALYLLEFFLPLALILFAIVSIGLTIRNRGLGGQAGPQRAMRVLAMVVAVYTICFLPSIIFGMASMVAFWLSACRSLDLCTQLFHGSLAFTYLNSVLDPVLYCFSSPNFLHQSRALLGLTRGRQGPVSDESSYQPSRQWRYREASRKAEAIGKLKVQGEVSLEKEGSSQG

Row | SMILES | Emax [%]
1 | CC/C=C\C/C=C\C/C=C\C/C=C\C/C=C\C=C\C(=O)CCC(=O)O | 23
2 | CC/C=C\C/C=C\C/C=C\C/C=C\C=C\C(=O)CCCC(=O)OC | 119
3 | CCCCC/C=C\C/C=C\C/C=C\C=C\C(=O)CCCC(=O)O [5-OXO-ETE] | 100
4 | CCCCC/C=C\C/C=C\C/C=C\C=C\C(=O)CCCC(=O)OC | 133
5 | CC/C=C\C/C=C\C/C=C\C/C=C\C=C\C(=O)CCCC(=O)O | 80
6 | CC/C=C\C/C=C\C/C=C\C/C=C\C/C=C\C=C\C(=O)CCC(=O)OC | 64

Biological target: T1, Oxoeicosanoid receptor 1
Test: Agonist activity at human PK-tagged OXER1 expressed in CHOK1 cells assessed as EA-tagged beta-arrestin recruitment by beta-galactosidase enzyme fragment complementation assay
Format: functional, cell-based

Row | SMILES | EC50 [nM]
7 | CC/C=C\C/C=C\C/C=C\C/C=C\C/C=C\C=C\C(=O)CCC(=O)O | > 100000
8 | CC/C=C\C/C=C\C/C=C\C/C=C\C=C\C(=O)CCCC(=O)OC | 2080
9 | CCCCC/C=C\C/C=C\C/C=C\C=C\C(=O)CCCC(=O)O [5-OXO-ETE] | 220
10 | CCCCC/C=C\C/C=C\C/C=C\C=C\C(=O)CCCC(=O)OC | 1540
11 | CC/C=C\C/C=C\C/C=C\C/C=C\C=C\C(=O)CCCC(=O)O | 380
12 | CC/C=C\C/C=C\C/C=C\C/C=C\C/C=C\C=C\C(=O)CCC(=O)OC | > 100000
